Measured values as given in patent US7074789B2, “Kinase inhibitors” (Amgen Inc., priority 1999, dated 2006).
Where “and” joins values, the source holds several entries; their conditions need not be identical. Identical values can stand only once.

Experiments:
Format in all cases: biochemical
Lck = target: T1, Lck (Homo sapiens, UniProt P06239); experiment: Kinase inhibition assay (33P transfer), Lck; conditions: read-out: Lck-1
T1 construct: Kinases are expressed as either kinase domains or full length constructs; made in house
Method in brief: (§1)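 GST/His-tagged kinase (domain or full length; E. coli or baculovirus) + [33P]ATP on plates coated with poly(Glu,Tyr) 4:1 or poly(Arg,Ser) 3:1; incubate, wash 0.5% H3PO4, add scintillant, count.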

Zap-70 = target: T2, Zap-70 (Homo sapiens, UniProt P43403); experiment: Kinase inhibition assay (33P transfer), Zap-70; conditions: read-out: Zap-1
T2 construct: Kinases are expressed as either kinase domains or full length constructs; made in house
T2 sequence (P43403 1-619): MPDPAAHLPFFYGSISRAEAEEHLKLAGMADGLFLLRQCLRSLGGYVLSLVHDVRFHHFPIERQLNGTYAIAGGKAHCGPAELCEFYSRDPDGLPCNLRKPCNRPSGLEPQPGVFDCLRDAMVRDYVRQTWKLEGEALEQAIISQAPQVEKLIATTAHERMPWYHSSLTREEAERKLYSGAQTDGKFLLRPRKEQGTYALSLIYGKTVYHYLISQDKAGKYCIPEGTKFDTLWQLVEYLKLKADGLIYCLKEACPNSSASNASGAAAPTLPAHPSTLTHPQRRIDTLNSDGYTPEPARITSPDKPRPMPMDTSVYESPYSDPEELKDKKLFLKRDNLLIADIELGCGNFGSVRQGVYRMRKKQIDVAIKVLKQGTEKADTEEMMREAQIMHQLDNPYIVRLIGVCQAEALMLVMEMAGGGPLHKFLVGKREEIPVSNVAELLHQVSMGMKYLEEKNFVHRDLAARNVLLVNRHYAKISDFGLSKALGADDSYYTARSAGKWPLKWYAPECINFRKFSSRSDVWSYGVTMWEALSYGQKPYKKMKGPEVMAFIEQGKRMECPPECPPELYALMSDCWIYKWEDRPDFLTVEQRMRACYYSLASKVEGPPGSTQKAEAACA
Method in brief: as §1

Itk = target: T3, Itk (Homo sapiens, UniProt Q08881); experiment: Kinase inhibition assay (33P transfer), Itk; conditions: read-out: Itk-1
T3 construct: Kinases are expressed as either kinase domains or full length constructs; made in house
T3 sequence (Q08881 1-620): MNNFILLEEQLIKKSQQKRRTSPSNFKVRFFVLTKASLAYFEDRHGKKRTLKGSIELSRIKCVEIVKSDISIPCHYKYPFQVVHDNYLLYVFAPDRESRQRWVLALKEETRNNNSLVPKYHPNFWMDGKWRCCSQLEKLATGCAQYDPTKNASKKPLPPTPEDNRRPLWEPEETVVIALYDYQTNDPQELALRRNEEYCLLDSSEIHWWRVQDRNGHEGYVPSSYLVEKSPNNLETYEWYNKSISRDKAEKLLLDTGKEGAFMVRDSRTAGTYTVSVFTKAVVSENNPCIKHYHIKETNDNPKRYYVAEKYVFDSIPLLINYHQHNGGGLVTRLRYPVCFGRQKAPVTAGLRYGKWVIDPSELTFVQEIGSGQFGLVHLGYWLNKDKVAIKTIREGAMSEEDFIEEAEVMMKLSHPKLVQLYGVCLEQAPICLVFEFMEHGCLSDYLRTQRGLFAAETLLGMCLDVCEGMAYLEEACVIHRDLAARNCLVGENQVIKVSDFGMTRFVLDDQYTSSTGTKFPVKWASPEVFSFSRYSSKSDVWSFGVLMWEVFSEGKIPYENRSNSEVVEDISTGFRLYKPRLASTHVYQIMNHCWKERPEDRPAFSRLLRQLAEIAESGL
Method in brief: (§2)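 Activity read as 33P incorporation from ATP into poly(Glu,Tyr) 4:1 or poly(Arg,Ser) 3:1 substrate bound to microtiter plates, measured by scintillation after acid washing. Enzymes were affinity-purified GST or polyHis fusions (kinase domain or full length) from E. coli or baculovirus; IC50 = 50% reduction in labelled phosphate.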

EGFR = target: T4, EGFR (Homo sapiens, UniProt P00533); experiment: Kinase inhibition assay (33P transfer), EGFR; conditions: Table 2, kinase inhibition class; read-out: EGFR-1
T4 construct: Kinases are expressed as either kinase domains or full length constructs; made in house
T4 sequence (P00533 25-1210, species assumed): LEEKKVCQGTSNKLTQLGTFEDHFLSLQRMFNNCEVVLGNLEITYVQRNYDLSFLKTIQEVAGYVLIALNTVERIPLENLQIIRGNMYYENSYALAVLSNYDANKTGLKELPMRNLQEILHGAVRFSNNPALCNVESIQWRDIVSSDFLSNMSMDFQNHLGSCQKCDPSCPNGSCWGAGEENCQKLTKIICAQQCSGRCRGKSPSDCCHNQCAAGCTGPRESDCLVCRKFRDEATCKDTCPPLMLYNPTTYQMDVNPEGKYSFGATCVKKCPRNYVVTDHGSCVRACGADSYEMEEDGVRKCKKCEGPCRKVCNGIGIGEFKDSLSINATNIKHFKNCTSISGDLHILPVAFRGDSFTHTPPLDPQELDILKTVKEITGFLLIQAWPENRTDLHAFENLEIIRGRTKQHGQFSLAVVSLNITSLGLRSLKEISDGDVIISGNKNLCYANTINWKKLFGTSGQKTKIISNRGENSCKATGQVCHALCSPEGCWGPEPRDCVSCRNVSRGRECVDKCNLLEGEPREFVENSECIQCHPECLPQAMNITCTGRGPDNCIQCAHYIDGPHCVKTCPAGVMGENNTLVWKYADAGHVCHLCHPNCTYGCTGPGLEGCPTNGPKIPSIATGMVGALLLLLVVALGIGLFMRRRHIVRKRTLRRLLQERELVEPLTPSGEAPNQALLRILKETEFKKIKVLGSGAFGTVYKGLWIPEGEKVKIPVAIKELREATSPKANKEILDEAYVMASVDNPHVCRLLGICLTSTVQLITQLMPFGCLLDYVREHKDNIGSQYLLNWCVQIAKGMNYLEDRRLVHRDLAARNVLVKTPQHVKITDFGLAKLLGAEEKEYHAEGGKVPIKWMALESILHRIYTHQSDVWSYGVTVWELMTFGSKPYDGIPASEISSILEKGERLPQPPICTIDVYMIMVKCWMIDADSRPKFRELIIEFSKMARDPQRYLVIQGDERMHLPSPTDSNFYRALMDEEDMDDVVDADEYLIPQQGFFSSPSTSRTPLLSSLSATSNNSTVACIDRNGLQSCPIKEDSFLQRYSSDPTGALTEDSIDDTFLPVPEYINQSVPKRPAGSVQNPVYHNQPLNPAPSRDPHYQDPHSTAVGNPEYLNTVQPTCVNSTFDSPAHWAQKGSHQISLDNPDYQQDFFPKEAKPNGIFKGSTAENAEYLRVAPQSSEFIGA
Method in brief: as §2

ErbB2 = target: T5, ErbB2 (Homo sapiens, UniProt P04626); experiment: Kinase inhibition assay (33P transfer), ErbB2; conditions: read-out: ErbB2-2
T5 construct: Kinases are expressed as either kinase domains or full length constructs; made in house
Method in brief: as §2

Kdr = target: T6, Kdr (Homo sapiens, UniProt P35968); experiment: Kinase inhibition assay (33P transfer), Kdr; conditions: read-out: KDR-1
T6 construct: Kinases are expressed as either kinase domains or full length constructs; made in house
T6 sequence (P35968 20-1356, species assumed): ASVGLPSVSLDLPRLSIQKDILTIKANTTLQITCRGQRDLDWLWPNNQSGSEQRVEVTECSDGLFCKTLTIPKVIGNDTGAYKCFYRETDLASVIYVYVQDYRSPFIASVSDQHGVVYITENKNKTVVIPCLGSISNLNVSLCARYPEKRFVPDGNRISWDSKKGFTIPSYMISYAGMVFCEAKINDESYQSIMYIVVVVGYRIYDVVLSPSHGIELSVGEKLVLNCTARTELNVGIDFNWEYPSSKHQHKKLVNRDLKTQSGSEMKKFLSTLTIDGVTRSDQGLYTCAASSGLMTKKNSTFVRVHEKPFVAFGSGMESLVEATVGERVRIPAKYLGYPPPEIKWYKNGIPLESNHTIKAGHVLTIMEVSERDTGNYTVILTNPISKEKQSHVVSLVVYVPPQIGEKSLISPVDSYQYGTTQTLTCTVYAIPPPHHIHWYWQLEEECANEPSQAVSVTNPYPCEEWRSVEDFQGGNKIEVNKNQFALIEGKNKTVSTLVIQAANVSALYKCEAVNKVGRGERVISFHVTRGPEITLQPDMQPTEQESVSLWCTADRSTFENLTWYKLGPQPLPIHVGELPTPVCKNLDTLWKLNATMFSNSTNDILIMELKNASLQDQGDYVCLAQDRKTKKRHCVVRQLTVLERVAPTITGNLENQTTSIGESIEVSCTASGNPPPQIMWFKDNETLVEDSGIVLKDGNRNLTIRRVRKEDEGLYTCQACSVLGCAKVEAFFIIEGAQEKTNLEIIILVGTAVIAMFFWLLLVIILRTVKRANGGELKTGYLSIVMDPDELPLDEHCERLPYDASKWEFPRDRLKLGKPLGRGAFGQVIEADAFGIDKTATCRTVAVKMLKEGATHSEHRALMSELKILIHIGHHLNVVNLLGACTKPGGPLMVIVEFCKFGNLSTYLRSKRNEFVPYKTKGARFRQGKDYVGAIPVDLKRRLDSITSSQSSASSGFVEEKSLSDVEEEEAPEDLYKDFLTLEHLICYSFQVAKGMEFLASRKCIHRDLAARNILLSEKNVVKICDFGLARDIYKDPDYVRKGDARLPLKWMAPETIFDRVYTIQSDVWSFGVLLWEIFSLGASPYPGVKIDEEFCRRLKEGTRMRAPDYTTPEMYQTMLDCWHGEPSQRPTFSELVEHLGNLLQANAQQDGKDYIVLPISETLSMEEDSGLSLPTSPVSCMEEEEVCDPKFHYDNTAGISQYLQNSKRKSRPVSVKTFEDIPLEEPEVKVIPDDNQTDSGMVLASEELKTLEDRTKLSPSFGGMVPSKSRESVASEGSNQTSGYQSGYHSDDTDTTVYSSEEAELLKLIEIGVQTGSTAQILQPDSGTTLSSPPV
Method in brief: as §1

c-Met = target: T7, c-Met (Homo sapiens, UniProt P08581); experiment: Kinase inhibition assay (33P transfer), c-Met; conditions: Table 2, kinase inhibition class; read-out: Met-1
T7 construct: Kinases are expressed as either kinase domains or full length constructs; made in house
T7 sequence (P08581 25-1390): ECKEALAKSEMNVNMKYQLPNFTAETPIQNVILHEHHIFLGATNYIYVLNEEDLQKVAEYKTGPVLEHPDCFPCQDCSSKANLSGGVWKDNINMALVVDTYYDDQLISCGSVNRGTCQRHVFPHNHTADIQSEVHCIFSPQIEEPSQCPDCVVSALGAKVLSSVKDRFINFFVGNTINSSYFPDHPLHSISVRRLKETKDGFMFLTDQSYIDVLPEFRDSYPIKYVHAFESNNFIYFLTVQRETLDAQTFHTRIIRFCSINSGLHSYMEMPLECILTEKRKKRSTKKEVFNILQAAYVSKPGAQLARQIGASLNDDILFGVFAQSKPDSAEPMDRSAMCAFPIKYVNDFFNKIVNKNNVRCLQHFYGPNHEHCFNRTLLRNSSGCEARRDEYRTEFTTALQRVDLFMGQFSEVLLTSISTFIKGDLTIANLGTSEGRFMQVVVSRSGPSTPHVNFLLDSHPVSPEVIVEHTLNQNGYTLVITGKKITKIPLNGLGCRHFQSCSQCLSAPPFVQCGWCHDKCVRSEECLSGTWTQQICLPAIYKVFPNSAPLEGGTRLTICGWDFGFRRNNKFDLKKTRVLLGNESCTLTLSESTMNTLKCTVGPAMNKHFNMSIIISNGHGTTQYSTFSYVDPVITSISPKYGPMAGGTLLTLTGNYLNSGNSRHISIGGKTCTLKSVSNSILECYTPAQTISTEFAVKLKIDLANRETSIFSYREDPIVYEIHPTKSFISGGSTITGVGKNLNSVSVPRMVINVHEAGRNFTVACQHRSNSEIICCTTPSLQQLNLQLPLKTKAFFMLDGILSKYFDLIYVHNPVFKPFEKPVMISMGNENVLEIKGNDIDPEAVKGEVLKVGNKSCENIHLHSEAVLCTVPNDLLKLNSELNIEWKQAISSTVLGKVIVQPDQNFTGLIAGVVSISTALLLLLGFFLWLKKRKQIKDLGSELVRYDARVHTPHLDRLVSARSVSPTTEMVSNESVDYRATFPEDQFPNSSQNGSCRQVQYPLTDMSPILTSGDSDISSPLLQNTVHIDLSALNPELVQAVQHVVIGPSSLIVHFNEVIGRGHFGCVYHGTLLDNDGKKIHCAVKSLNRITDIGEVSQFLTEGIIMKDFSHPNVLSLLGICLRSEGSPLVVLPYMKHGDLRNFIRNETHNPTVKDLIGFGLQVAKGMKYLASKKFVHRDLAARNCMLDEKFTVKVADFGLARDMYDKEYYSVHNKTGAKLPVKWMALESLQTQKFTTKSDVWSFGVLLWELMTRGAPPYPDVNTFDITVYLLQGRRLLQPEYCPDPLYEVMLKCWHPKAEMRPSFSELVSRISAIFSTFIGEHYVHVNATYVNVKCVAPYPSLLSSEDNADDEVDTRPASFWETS
Method in brief: as §2

AKT = target: T8, AKT (Homo sapiens, UniProt Q9Y243); experiment: Kinase inhibition assay (33P transfer), AKT; conditions: Table 2, kinase inhibition class; read-out: AKT3-1
T8 construct: Kinases are expressed as either kinase domains or full length constructs; made in house
Method in brief: as §1

IGFR-1 = target: T9, IGFR-1 (Homo sapiens, UniProt P08069); experiment: Kinase inhibition assay, IGFR-1 (Table 2); conditions: Table 2, kinase inhibition class
T9 construct: Kinases are expressed as either kinase domains or full length constructs; made in house

PDGFRB = target: T10, PDGFRB (Homo sapiens, UniProt P09619); experiment: Kinase inhibition assay (33P transfer), PDGFRB; conditions: read-out: PDGFRB-1
T10 construct: Kinases are expressed as either kinase domains or full length constructs; made in house
T10 sequence (P09619 33-1106, species assumed): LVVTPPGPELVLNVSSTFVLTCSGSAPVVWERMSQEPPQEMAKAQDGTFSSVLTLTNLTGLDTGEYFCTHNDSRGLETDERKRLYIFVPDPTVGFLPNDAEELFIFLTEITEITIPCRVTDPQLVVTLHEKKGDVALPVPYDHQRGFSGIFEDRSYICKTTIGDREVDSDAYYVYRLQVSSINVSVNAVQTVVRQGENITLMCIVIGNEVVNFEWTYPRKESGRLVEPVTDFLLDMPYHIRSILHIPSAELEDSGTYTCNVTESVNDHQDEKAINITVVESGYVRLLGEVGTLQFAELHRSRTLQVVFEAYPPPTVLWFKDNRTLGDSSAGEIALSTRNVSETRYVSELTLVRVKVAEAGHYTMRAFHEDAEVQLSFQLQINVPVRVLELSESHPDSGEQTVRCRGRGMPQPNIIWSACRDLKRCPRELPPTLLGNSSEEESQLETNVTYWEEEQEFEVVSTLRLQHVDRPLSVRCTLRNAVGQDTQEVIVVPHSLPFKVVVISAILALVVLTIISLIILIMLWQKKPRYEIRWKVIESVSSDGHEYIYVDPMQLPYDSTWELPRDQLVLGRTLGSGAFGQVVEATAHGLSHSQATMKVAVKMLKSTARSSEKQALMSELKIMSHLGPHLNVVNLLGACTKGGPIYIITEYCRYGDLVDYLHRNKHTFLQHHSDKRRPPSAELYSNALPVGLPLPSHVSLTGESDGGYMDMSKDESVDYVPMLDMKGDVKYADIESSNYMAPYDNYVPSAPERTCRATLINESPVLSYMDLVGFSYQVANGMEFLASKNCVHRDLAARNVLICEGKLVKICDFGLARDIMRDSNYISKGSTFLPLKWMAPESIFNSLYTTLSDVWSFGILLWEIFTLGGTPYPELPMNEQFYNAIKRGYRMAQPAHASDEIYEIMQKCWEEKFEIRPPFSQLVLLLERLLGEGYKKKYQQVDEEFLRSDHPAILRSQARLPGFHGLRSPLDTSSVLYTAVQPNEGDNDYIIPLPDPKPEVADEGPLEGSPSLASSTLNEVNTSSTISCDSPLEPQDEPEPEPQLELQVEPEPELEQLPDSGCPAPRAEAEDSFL

Row | Structure (SMILES) | IC50 (Lck) | IC50 (Zap-70) | IC50 (Itk) | IC50 (EGFR) | IC50 (ErbB2) | IC50 (Kdr) | IC50 (c-Met) | IC50 (AKT) | IC50 (IGFR-1) | IC50 (PDGFRB)
1 | COc1ccc(-c2cc(Nc3ncnc(Nc4ccc(CC(N)=O)cc4)n3)[nH]n2)cc1 [Compound 576] | < 0.961 µM | > 10.8 µM | 0.961 to 5.76 µM | 0.961 to 5.76 µM | > 10.8 µM | < 0.961 µM | < 0.961 µM | > 10.8 µM | < 0.961 µM | > 10.8 µM
2 | COC(=O)c1ccc(-c2cc(Nc3ncnc(Nc4cccc(CC(N)=O)c4)n3)[nH]n2)cc1 [Compound 577] | 0.9 to 5.4 µM | > 10.1 µM | 0.9 to 5.4 µM | 7.87 to 10.1 µM | 7.87 to 10.1 µM | 0.9 to 5.4 µM | < 0.9 µM | > 10.1 µM | < 0.9 µM | 0.9 to 5.4 µM
3 | NC(=O)Cc1cccc(Nc2ncnc(Nc3cc(-c4ccccc4)n[nH]3)n2)c1 [Compound 578] | < 1.04 µM | > 11.6 µM | < 1.04 µM | < 1.04 µM | 1.04 to 6.21 µM | < 1.04 µM | < 1.04 µM | > 11.6 µM | < 1.04 µM | 1.04 to 6.21 µM
4 | COc1cc(Nc2ncnc(NC3CCc4ccccc43)n2)cc(OC)c1OC (centres unmarked) [Compound 581] | 1.02 to 6.1 µM | > 11.4 µM | > 11.4 µM | 1.02 to 6.1 µM | > 11.4 µM | 8.9 to 11.4 µM | > 11.4 µM | > 11.4 µM | > 11.4 µM | 6.1 to 8.9 µM
5 | COc1cc(Nc2ncnc(-n3c(NCc4ccc(C)cc4C)nc4ccccc43)n2)cc(OC)c1OC [Compound 584] | 0.782 to 4.69 µM | > 8.8 µM | > 8.8 µM | 4.69 to 6.84 µM | 4.69 to 6.84 µM and 0.782 to 4.69 µM | 0.782 to 4.69 µM | 6.84 to 8.8 µM | > 8.8 µM | > 8.8 µM | > 8.8 µM
6 | COc1cc(Nc2ncnc(N[C@H]3CCCc4ccccc43)n2)cc(OC)c1OC [Compound 619] | 5.89 to 8.59 µM | > 11 µM | > 11 µM | 8.59 to 11 µM | 8.59 to 11 µM | 5.89 to 8.59 µM | > 11 µM | 8.59 to 11 µM | > 11 µM | > 11 µM

More lines, now with the values ahead:

Row | IC50 (Lck) | IC50 (Zap-70) | IC50 (Itk) | IC50 (EGFR) | IC50 (ErbB2) | IC50 (Kdr) | IC50 (c-Met) | IC50 (AKT) | IC50 (IGFR-1) | IC50 (PDGFRB) | Structure (SMILES)
7 | 0.845 to 5.07 µM | > 9.5 µM | 0.845 to 5.07 µM | > 9.5 µM | > 9.5 µM | 5.07 to 7.39 µM | > 9.5 µM | > 9.5 µM | 0.845 to 5.07 µM | 0.845 to 5.07 µM | COc1cc(Nc2ncnc(-n3c(NCc4ncc[nH]4)nc4ccccc43)n2)cc(OC)c1OC [Compound 583]
8 | > 8.64 µM | > 8.64 µM | > 8.64 µM | > 8.64 µM | 0.768 to 4.61 µM | 4.61 to 6.72 µM | > 8.64 µM | > 8.64 µM | 6.72 to 8.64 µM | 0.768 to 4.61 µM | COc1cc(Nc2ncnc(-n3c(Nc4cccc5cccnc45)nc4ccccc43)n2)cc(OC)c1OC [Compound 588]
9 | 0.819 to 4.91 µM | > 9.21 µM | 4.91 to 7.17 µM | 4.91 to 7.17 µM | 4.91 to 7.17 µM | 0.819 to 4.91 µM | 7.17 to 9.21 µM | > 9.21 µM | < 0.819 µM | > 9.21 µM | COc1cc(Nc2ncnc(Nc3cc(-c4ccc(Cl)c(Cl)c4)n[nH]3)n2)cc(OC)c1OC [Compound 589]
10 | 6.63 to 8.53 µM | > 8.53 µM | > 8.53 µM | > 8.53 µM | 0.758 to 4.55 µM | 0.758 to 4.55 µM | > 8.53 µM | 4.55 to 6.63 µM | > 8.53 µM | 6.63 to 8.53 µM | COc1cc(Nc2ncnc(-n3c(NCc4ccc5c(c4)OCO5)nc4ccccc43)n2)cc(OC)c1OC [Compound 595]
11 | 0.91 to 5.46 µM | > 10.2 µM | 7.97 to 10.2 µM | < 0.91 µM | 5.46 to 7.97 µM | 0.91 to 5.46 µM | 5.46 to 7.97 µM | 7.97 to 10.2 µM | < 0.91 µM | 0.91 to 5.46 µM | COc1cc(Nc2ncnc(Nc3cc(C(F)(F)F)ccc3F)n2)cc(OC)c1OC [Compound 618]
12 | 0.982 to 5.89 µM | 8.59 to 11 µM | > 11 µM | 0.982 to 5.89 µM | 8.59 to 11 µM | 8.59 to 11 µM | 5.89 to 8.59 µM | > 11 µM | > 11 µM | > 11 µM | COc1cc(Nc2ncnc(N[C@@H]3CCCc4ccccc43)n2)cc(OC)c1OC [Compound 620]
13 | 1.08 to 6.45 µM | > 12.1 µM | > 12.1 µM | < 1.08 µM | < 1.08 µM | 1.08 to 6.45 µM | 1.08 to 6.45 µM | > 12.1 µM | 6.45 to 9.41 µM | 1.08 to 6.45 µM | COc1ccc(Nc2ncnc(N(C)c3cccc(Cl)c3)n2)cc1OC [Compound 621]
14 | > 12.1 µM | > 12.1 µM | > 12.1 µM | 6.46 to 9.42 µM | 6.46 to 9.42 µM | > 12.1 µM | > 12.1 µM | > 12.1 µM | > 12.1 µM | 9.42 to 12.1 µM | CC1CCc2ccccc2N1c1ncnc(N2c3ccccc3CCC2C)n1 (centres unmarked) [Compound 622]
